Toxic doses and inconclusive results are not listed. Cut-off read from the data, not from the text of the source: active = T/C of 150% or more; inactive = T/C below 125%.
Test system: L1210 leukemia ip in BDF1 mice, survival T/C
Test: NCI In Vivo Anticancer Drug Screen. Data for tumor model L1210 Leukemia (intraperitoneal) in B6D2F1 (BDF1) mice
Conditions: endpoint: mean survival time, higher = longer survival
Method in brief: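 Value reflects the ratio of survival in compound-treated mice to survival in vehicle-treated controls, with both groups carrying the same transplanted tumor.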

[1] = dose: 100.0 mg/kg/injection, schedule: Q01DX009 (ip), vehicle: Klucel (hydroxypropylcellulose) (HPC)
[2] = dose: 100.0 mg/kg/injection, schedule: Q04DX003 (ip), vehicle: Klucel (hydroxypropylcellulose) (HPC)
[3] = dose: 200.0 mg/kg/injection, schedule: Q01DX009 (ip), vehicle: Klucel (hydroxypropylcellulose) (HPC)
[4] = dose: 200.0 mg/kg/injection, schedule: Q04DX003 (ip), vehicle: Klucel (hydroxypropylcellulose) (HPC)
[5] = dose: 400.0 mg/kg/injection, schedule: Q01DX009 (ip), vehicle: Klucel (hydroxypropylcellulose) (HPC)
[6] = dose: 400.0 mg/kg/injection, schedule: Q04DX003 (ip), vehicle: Klucel (hydroxypropylcellulose) (HPC)
[7] = dose: 100.0 mg/kg/injection, schedule: Q01DX001 (ip), vehicle: saline
[8] = dose: 200.0 mg/kg/injection, schedule: Q01DX001 (ip), vehicle: saline
[9] = dose: 400.0 mg/kg/injection, schedule: Q01DX001 (ip), vehicle: saline

Measured: T/C

COc1c(C)cc(Br)c2c1C(CCN(C)S(=O)(=O)Cc1ccccc1)CCC2 (stereo not given)
inactive: [1] 95 % of control | [2] 96 % of control | [3] 89 % of control | [4] 98 % of control | [5] 93 % of control | [6] 91 % of control

CC(C)C(O)c1cnc(OCc2ccccc2)nc1OCc1ccccc1 (stereo not given)
inactive: [1] 96 % of control | dose: 100.0 mg/kg/injection, schedule: Q04DX003 (ip), vehicle: other 98 % of control | [3] 101 % of control | dose: 200.0 mg/kg/injection, schedule: Q04DX003 (ip), vehicle: other 103 % of control | [5] 101 % of control | dose: 400.0 mg/kg/injection, schedule: Q04DX003 (ip), vehicle: other 103 % of control

CCOC1=C(Br)C=CN(S(=O)(=O)c2ccc(C)cc2)c2ccc(OC)cc21
inactive: [1] 98 % of control | [2] 95 % of control | [3] 101 % of control | [4] 101 % of control | [5] 100 % of control | [6] 91 % of control

CC1C(=O)C2CCCCC2C1=O (stereo not given)
inactive: [7] 96 % of control | [8] 96 % of control | [9] 100 % of control

Cc1ccc(NC(=O)Oc2cc(C)c(Cl)cc2C(C)C)cc1
inactive: [1] 98 % of control | [3] 96 % of control | [5] 100 % of control

CCn1c(COc2cc(C)cc(C)c2)c(COC(=O)c2cccc(Cl)c2)c2ccccc21
inactive: dose: 50.0 mg/kg/injection, schedule: Q01DX009 (ip), vehicle: saline with Tween-80 96 % of control | dose: 100.0 mg/kg/injection, schedule: Q01DX009 (ip), vehicle: saline with Tween-80 86 % of control | dose: 200.0 mg/kg/injection, schedule: Q01DX009 (ip), vehicle: saline with Tween-80 91 % of control

CCOc1ccc2nc(C)sc2c1
inactive: dose: 100.0 mg/kg/injection, schedule: Q04DX003 (ip), vehicle: acetone 97 % of control | dose: 200.0 mg/kg/injection, schedule: Q04DX003 (ip), vehicle: acetone 95 % of control | dose: 400.0 mg/kg/injection, schedule: Q04DX003 (ip), vehicle: acetone 93 % of control

O=S(=O)(CBr)N1CCOCC1
inactive: dose: 50.0 mg/kg/injection, schedule: Q04DX003 (ip), vehicle: saline with Tween-80 93 % of control | dose: 100.0 mg/kg/injection, schedule: Q04DX003 (ip), vehicle: saline with Tween-80 98 % of control | dose: 200.0 mg/kg/injection, schedule: Q04DX003 (ip), vehicle: saline with Tween-80 98 % of control

Cc1cc(N=Cc2cccc([N+](=O)[O-])c2O)c2ccccc2n1
inactive: dose: 100.0 mg/kg/injection, schedule: Q01DX001 (ip), vehicle: other 101 % of control

COc1ccc(C2(OC)Oc3ccccc3C(=O)C2(O)O)cc1 (stereo not given)
inactive: dose: 50.0 mg/kg/injection, schedule: Q01DX001 (ip), vehicle: saline 101 % of control | [7] 104 % of control | [8] 101 % of control | [9] 104 % of control

c1ccc([As](C[As](c2ccccc2)c2ccccc2)c2ccccc2)cc1
inactive: dose: 50.0 mg/kg/injection, schedule: Q04DX003 (ip), vehicle: Klucel (hydroxypropylcellulose) (HPC) 91 % of control | [2] 97 % of control | [4] 96 % of control | [6] 92 % of control

Nc1nn(-c2ccccc2)c(N)c1N=Nc1ccccc1
inactive: dose: 50.0 mg/kg/injection, schedule: Q01DX009 (ip), vehicle: Klucel (hydroxypropylcellulose) (HPC) 98 % of control | [1] 98 % of control | [3] 98 % of control
